Experimental findings from US10406207B2, “Peptide conjugates of GLP-1 receptor agonists and gastrin and their use” (priority 2010, dated 2019) are described below.

Where two headings read alike, the source gives them in different places. Ends that are not written are not given here.

One assay concerns the target T1, human CCK-B R (Homo sapiens, UniProt P32239).
T1 construct: expressed in transfected cells
T1 sequence (P32239 1-447): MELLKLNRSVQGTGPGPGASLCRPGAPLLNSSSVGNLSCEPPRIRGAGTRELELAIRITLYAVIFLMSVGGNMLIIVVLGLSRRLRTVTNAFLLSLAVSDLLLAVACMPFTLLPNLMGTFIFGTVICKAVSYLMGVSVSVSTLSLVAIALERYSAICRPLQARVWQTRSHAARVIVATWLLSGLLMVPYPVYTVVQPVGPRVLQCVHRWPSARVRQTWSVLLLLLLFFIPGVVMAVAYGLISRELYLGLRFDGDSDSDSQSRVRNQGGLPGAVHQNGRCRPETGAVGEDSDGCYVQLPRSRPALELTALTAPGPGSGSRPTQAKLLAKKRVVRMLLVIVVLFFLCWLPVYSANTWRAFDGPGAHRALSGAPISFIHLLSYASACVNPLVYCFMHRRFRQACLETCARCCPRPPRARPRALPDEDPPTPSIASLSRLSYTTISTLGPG
Nature of the assay: Human CCK-B receptor efficacy assay (AlphaScreen SureFire p-ERK). The assay is classed as cell-based. The conditions noted are these: Table 1; HEK293 cells expressing human CCK-B R, p-ERK; read-out: hCCK-B R EC50. (In general: Bead proximity is the source of the signal in Alpha formats.)

Another assay concerns the target T2, mouse CCK-B R (Mus musculus, UniProt P56481).
T2 construct: expressed in transfected cells
T2 sequence (P56481 1-453): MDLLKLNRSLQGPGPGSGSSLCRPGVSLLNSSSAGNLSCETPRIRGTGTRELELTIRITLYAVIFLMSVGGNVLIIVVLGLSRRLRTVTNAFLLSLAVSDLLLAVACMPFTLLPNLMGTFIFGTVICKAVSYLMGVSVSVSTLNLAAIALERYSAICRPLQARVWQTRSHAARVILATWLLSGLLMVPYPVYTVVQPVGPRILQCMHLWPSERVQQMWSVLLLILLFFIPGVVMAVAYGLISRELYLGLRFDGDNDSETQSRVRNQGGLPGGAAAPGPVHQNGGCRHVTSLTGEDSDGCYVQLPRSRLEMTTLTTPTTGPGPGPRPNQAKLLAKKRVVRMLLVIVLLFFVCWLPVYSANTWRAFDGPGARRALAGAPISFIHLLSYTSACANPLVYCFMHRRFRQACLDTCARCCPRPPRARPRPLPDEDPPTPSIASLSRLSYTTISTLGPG
Nature of the assay: Mouse CCK-B receptor efficacy assay (AlphaScreen SureFire p-ERK). The assay is classed as cell-based. The source says: CCK-B Receptor (CCK-B R) Efficacy Assay:
To test binding and activation of CCK-B R we produced stable cell lines expressing one of the human or mouse CCK receptors in a manner similar to that for production of the hGLP-1 R cell lines were generated (vide supra). In brief, we used HEK293 cells for transfection of the cDNA for human or mouse CCK-A R or CCK-B R [hCCK-A R (gene identity: L19315), hCCK-B R (NM_176875), mCCK-A R (NM_009827) and mCCK-B R (NM_007627)] all cloned into the transfection plasmid pIRESneo2dNGFR. The cells were grown according to standard protocol in growth medium and transfected with the plasmids using Lipofectamin (Invitrogen). The cells stably expressing CCK receptors were selected using G418 in the growth medium (only cells that have taken up and incorporated the cDNA expression plasmid survive) and propagated. Stocks of cells were frozen for later use.
In vitro effects of peptide conjugates of the invention were estimated by measuring p-ERK (using the AlphaScreen™ SureFire p-ERK assay) in HEK293 cells stably expressing the human and mouse CCK-B R (high-affinity Gastrin receptor), respectively. The Gastrin receptor efficacy assays (AlphaScreen™ SureFire p-ERK assay) were performed as follows:
The CCK-B R expressing cells in question were seeded at 20,000 cells/well in 100 μl growth medium [DMEM, 10% FCS, Penicillin (100 IU/ml), Streptomycin (100 μg/ml)] in a 96-well plate coated with poly-D-lysine. The cells were incubated in an incubator (37° C., 5% […]) for two days.
The growth medium was changed to 80 μl of serum-free medium [DMEM, Penicillin (100 IU/ml), Streptomycin (100 μg/ml)] per well, and incubation of the cells was continued for 19 hours in the incubator (37° C., 5% CO2).
• 1. After 19 hours, 20 μl of serum-free medium containing one of 5 different concentrations of peptide conjugate was added (performed in triplicate for each concentration), and the cells were incubated for 5 min. at room temperature. • 2. The stimulation medium was discarded by quickly turning the plate upside down, and 60 μl 1× lysis buffer (from the SureFire assay kit) was added per well. • 3. The plate was shaken on a plate-shaker for 5 min and then placed on ice. • 4. SureFire P-ERK assay: 4 μl of each supernatant was transferred to a 384 well proxiplate (Perkin Elmer). • 5. 4 μl of each of the two control lysates (unstimulated and stimulated) were added to the proxiplate in duplicate. • 6. […] 7 μl of the latter reaction buffer+activation buffer+beads per well were added in the proxiplate, the mix being resuspended carefully before addition to the wells. • 7. The plate was incubated for 2 hours in a dark box in a 22° C. incubator. • 8. The plate was analyzed on an Envision™ light-emission plate reader (Perkin-Elmer) using the appropriate reading program (Perkin-Elmer).

Setting [1] is: Table 1, HEK293 cells expressing mouse CCK-B R, p-ERK, read-out: mCCK-B R EC50.

Experimental for human CCK-B R: The CCK-B R expressing cells in question were seeded at 20,000 cells/well in 100 μl growth medium [DMEM, 10% FCS, Penicillin (100 IU/ml), Streptomycin (100 μg/ml)] in a 96-well plate coated with poly-D-lysine. The cells were incubated in an incubator (37° C., 5% 002) for two days.

`CC[C@H](C)[C@H](NC(=O)[C@H](Cc1ccccc1)NC(=O)[C@H](CCC(=O)O)NC(=O)[C@H](CCCCN)NC(=O)[C@H](C)NC(=O)[C@H](C)NC(=O)[C@H](CCC(N)=O)NC(=O)CNC(=O)[C@H](CCC(=O)O)NC(=O)[C@H](CC(C)C)NC(=O)[C@H](Cc1ccc(O)cc1)NC(=O)[C@H](CO)NC(=O)[C@H](CO)NC(=O)[C@@H](NC(=O)[C@H](CC(=O)O)NC(=O)[C@H](CO)NC(=O)[C@@H](NC(=O)[C@H](Cc1ccccc1)NC(=O)[C@@H](NC(=O)CNC(=O)[C@H](CCC(=O)O)NC(=O)[C@H](C)NC(=O)[C@@H](N)Cc1c[nH]cn1)[C@@H](C)O)[C@@H](C)O)C(C)C)C(=O)N[C@@H](C)C(=O)N[C@@H](Cc1c[nH]c2ccccc12)C(=O)N[C@@H](CC(C)C)C(=O)N[C@H](C(=O)N[C@@H](CCCCN)C(=O)NCC(=O)N[C@@H](CCCNC(=N)N)C(=O)NCCCCCCCC(=O)NCCCCCCCC(=O)N[C@@H](CCC(N)=O)C(=O)NCC(=O)N1CCC[C@H]1C(=O)N[C@@H](Cc1c[nH]c2ccccc12)C(=O)N[C@@H](CC(C)C)C(=O)N[C@@H](CCC(=O)O)C(=O)N[C@@H](CCC(=O)O)C(=O)N[C@@H](CCC(=O)O)C(=O)N[C@@H](CCC(=O)O)C(=O)N[C@@H](CCC(=O)O)C(=O)N[C@@H](C)C(=O)N[C@@H](Cc1ccc(O)cc1)C(=O)NCC(=O)N[C@@H](Cc1c[nH]c2ccccc12)C(=O)N[C@@H](CC(C)C)C(=O)N[C@@H](CC(=O)O)C(=O)N[C@@H](Cc1ccccc1)C(N)=O)C(C)C` [Compound 45, GLP-1(7-36)-8Aoc-8Aoc-[Gln1,Leu15]Gastrin17]: the EC50 stood at 12.8 nM on human CCK-B R and 71.4 nM at mouse CCK-B R (setting [1]).

Take “QGPWLEEEEEAYGWLDF-NH2 [h[Gln1,Leu15]Gastrin17, reference compound]”: the EC50 on mouse CCK-B R was 18.2 nM.

As to `CC[C@H](C)[C@H](NC(=O)[C@H](Cc1ccccc1)NC(=O)[C@H](CCC(=O)O)NC(=O)[C@H](CCCCN)NC(=O)[C@H](C)NC(=O)[C@H](C)NC(=O)[C@H](CCC(N)=O)NC(=O)CNC(=O)[C@H](CCC(=O)O)NC(=O)[C@H](CC(C)C)NC(=O)[C@H](Cc1ccc(O)cc1)NC(=O)[C@H](CO)NC(=O)[C@H](CO)NC(=O)[C@@H](NC(=O)[C@H](CC(=O)O)NC(=O)[C@H](CO)NC(=O)[C@@H](NC(=O)[C@H](Cc1ccccc1)NC(=O)[C@@H](NC(=O)CNC(=O)[C@H](CCC(=O)O)NC(=O)[C@H](C)NC(=O)[C@@H](N)Cc1c[nH]cn1)[C@@H](C)O)[C@@H](C)O)C(C)C)C(=O)N[C@@H](C)C(=O)N[C@@H](Cc1c[nH]c2ccccc12)C(=O)N[C@@H](CC(C)C)C(=O)N[C@H](C(=O)N[C@@H](CCCCN)C(=O)NCC(=O)N[C@@H](CCCNC(=N)N)C(=O)NCCCCCCCC(=O)N[C@@H](CO)C(=O)N[C@@H](CCCCN)C(=O)N[C@@H](CCCCN)C(=O)N[C@@H](CCC(N)=O)C(=O)NCC(=O)N1CCC[C@H]1C(=O)N[C@@H](Cc1c[nH]c2ccccc12)C(=O)N[C@@H](CC(C)C)C(=O)N[C@@H](CCC(=O)O)C(=O)N[C@@H](CCC(=O)O)C(=O)N[C@@H](CCC(=O)O)C(=O)N[C@@H](CCC(=O)O)C(=O)N[C@@H](CCC(=O)O)C(=O)N[C@@H](C)C(=O)N[C@@H](Cc1ccc(O)cc1)C(=O)NCC(=O)N[C@@H](Cc1c[nH]c2ccccc12)C(=O)N[C@@H](CC(C)C)C(=O)N[C@@H](CC(=O)O)C(=O)N[C@@H](Cc1ccccc1)C(N)=O)C(C)C` [Compound 43, GLP-1(7-36)-8Aoc-SKK-[Gln1,Leu15]Gastrin17], the EC50 was determined as 51.9 nM on human CCK-B R and 82.5 nM on mouse CCK-B R (setting [1]).

With `CC[C@H](C)[C@H](NC(=O)[C@H](Cc1ccccc1)NC(=O)[C@H](CCC(=O)O)NC(=O)[C@H](CCCCN)NC(=O)[C@H](C)NC(=O)[C@H](C)NC(=O)[C@H](CCC(N)=O)NC(=O)CNC(=O)[C@H](CCC(=O)O)NC(=O)[C@H](CC(C)C)NC(=O)[C@H](Cc1ccc(O)cc1)NC(=O)[C@H](CO)NC(=O)[C@H](CO)NC(=O)[C@@H](NC(=O)[C@H](CC(=O)O)NC(=O)[C@H](CO)NC(=O)[C@@H](NC(=O)[C@H](Cc1ccccc1)NC(=O)[C@@H](NC(=O)CNC(=O)[C@H](CCC(=O)O)NC(=O)[C@H](C)NC(=O)[C@@H](N)Cc1c[nH]cn1)[C@@H](C)O)[C@@H](C)O)C(C)C)C(=O)N[C@@H](C)C(=O)N[C@@H](Cc1c[nH]c2ccccc12)C(=O)N[C@@H](CC(C)C)C(=O)N[C@H](C(=O)N[C@@H](CCCCN)C(=O)NCC(=O)N[C@@H](CCCNC(=N)N)C(=O)NCCOCCOCC(=O)N[C@@H](CO)C(=O)N[C@@H](CCCCN)C(=O)N[C@@H](CCCCN)C(=O)N[C@@H](CCC(N)=O)C(=O)NCC(=O)N1CCC[C@H]1C(=O)N[C@@H](Cc1c[nH]c2ccccc12)C(=O)N[C@@H](CC(C)C)C(=O)N[C@@H](CCC(=O)O)C(=O)N[C@@H](CCC(=O)O)C(=O)N[C@@H](CCC(=O)O)C(=O)N[C@@H](CCC(=O)O)C(=O)N[C@@H](CCC(=O)O)C(=O)N[C@@H](C)C(=O)N[C@@H](Cc1ccc(O)cc1)C(=O)NCC(=O)N[C@@H](Cc1c[nH]c2ccccc12)C(=O)N[C@@H](CC(C)C)C(=O)N[C@@H](CC(=O)O)C(=O)N[C@@H](Cc1ccccc1)C(N)=O)C(C)C` [Compound 41, GLP-1(7-36)-Peg3-SKK-[Gln1,Leu15]Gastrin17], the EC50 at human CCK-B R is 8.76 nM; at mouse CCK-B R (setting [1]), 51.1 nM.

As to `CC[C@H](C)[C@H](NC(=O)[C@H](Cc1ccccc1)NC(=O)[C@H](CCC(=O)O)NC(=O)[C@H](CCCCN)NC(=O)[C@H](C)NC(=O)[C@H](C)NC(=O)[C@H](CCC(N)=O)NC(=O)CNC(=O)[C@H](CCC(=O)O)NC(=O)[C@H](CC(C)C)NC(=O)[C@H](Cc1ccc(O)cc1)NC(=O)[C@H](CO)NC(=O)[C@H](CO)NC(=O)[C@@H](NC(=O)[C@H](CC(=O)O)NC(=O)[C@H](CO)NC(=O)[C@@H](NC(=O)[C@H](Cc1ccccc1)NC(=O)[C@@H](NC(=O)CNC(=O)[C@H](CCC(=O)O)NC(=O)[C@H](C)NC(=O)[C@@H](N)Cc1c[nH]cn1)[C@@H](C)O)[C@@H](C)O)C(C)C)C(=O)N[C@@H](C)C(=O)N[C@@H](Cc1c[nH]c2ccccc12)C(=O)N[C@@H](CC(C)C)C(=O)N[C@H](C(=O)N[C@@H](CCCCN)C(=O)NCC(=O)N[C@@H](CCCNC(=N)N)C(=O)NCCc1cccc2c1oc1c(CCC(=O)N[C@@H](CO)C(=O)N[C@@H](CCCCN)C(=O)N[C@@H](CCCCN)C(=O)N[C@@H](CCC(N)=O)C(=O)NCC(=O)N3CCC[C@H]3C(=O)N[C@@H](Cc3c[nH]c4ccccc34)C(=O)N[C@@H](CC(C)C)C(=O)N[C@@H](CCC(=O)O)C(=O)N[C@@H](CCC(=O)O)C(=O)N[C@@H](CCC(=O)O)C(=O)N[C@@H](CCC(=O)O)C(=O)N[C@@H](CCC(=O)O)C(=O)N[C@@H](C)C(=O)N[C@@H](Cc3ccc(O)cc3)C(=O)NCC(=O)N[C@@H](Cc3c[nH]c4ccccc34)C(=O)N[C@@H](CC(C)C)C(=O)N[C@@H](CC(=O)O)C(=O)N[C@@H](Cc3ccccc3)C(N)=O)cccc12)C(C)C` [Compound 44, GLP-1(7-36)-DBF-SKK-[Gln1,Leu15]Gastrin17], the EC50 on human CCK-B R was determined as 25.7 nM; at mouse CCK-B R (setting [1]) it was 86.9 nM.

One may read the EC50 as the concentration that produces a half-maximal response.
